Data set [1] concerns adjuvant-induced arthritis in rats. In words: Adjuvant-induced arthritis rat model, inhibition of paw swelling. It is filed as in vivo, Male Lewis rats. The conditions noted are these: oral, daily, days 8-15; paw volume day 15.
Data set [2] in a line: Pharmacokinetics after oral administration in rats. The format is in vivo, Male Sprague Dawley rats. The conditions noted are these: rat. The method, then: The animals are housed, fed and cared for according to the Guidelines of the […] Council on Animal Care. Male Sprague Dawley rats (250-300 g) are fasted overnight prior to each PO blood level study. The rats are placed in the restrainer one at a time and the box firmly secured. Compounds are prepared as required, in a standard dosing volume of 500 μL/250 g, and administered orally by passing a 16 gauge, 3″ gavaging needle into the stomach. Rats are catheterized at the carotid at least one day before drug administration and flushed with 30% PVP (400 U/mL of heparin) to prevent clotting in the tip. 250 μL blood samples are collected by unhooking the flush syringe and letting the blood flow freely in centrifuge tube at predetermined time points. The tubes should be centrifuged at 13,000 rpm for 10 min at 4° C. The plasma samples are collected in microcentrifuge tubes and stored immediately at −20° C. until analysis or analyzed immediately. Typical time points for determination of rat blood levels after PO dosing are: 30 min, 1 h, 3 h, 5 h, 7 h, 23 h, 25 h, 28 h, 31 h. A 100 μL aliquot of plasma sample is mixed with 150 μL of acetonitrile. After vortex and centrifuge, 200 μL of the supernatant is dried up under Speed Vac. The residue is reconstituted with 100 μL of methanol. After vortex and centrifuge again, 25 μL of supernatant is analyzed by C-18 HPLC column using UV detector. Quantitation is done relative to a clean blood sample spiked with a known quantity of drug.

In another data set the target is T1, COX-2 (Ovis aries, UniProt P79208).
T1 construct: host or cells: insect cells (membranes, CHAPS-solubilized)
T1 sequence (P79208 17-603): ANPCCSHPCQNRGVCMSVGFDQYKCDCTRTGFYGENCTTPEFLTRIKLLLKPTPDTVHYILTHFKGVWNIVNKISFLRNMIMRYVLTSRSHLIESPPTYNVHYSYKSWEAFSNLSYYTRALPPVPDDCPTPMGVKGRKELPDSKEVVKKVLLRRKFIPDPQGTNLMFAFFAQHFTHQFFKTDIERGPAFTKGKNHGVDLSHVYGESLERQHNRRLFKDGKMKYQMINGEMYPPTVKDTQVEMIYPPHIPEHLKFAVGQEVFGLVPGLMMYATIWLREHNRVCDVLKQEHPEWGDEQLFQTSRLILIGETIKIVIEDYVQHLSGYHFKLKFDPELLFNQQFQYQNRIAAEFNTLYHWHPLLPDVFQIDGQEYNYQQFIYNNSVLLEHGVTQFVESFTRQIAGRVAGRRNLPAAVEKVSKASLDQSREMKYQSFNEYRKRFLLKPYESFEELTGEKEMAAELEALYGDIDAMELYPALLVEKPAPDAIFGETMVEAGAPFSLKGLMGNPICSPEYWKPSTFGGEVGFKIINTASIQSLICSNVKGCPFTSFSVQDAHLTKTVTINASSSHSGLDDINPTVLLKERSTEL
In words: Assay for COX-2 activity (Ovine), PGE2 formation by ELISA. It is filed as biochemical. The conditions noted are these: for Selectivity: IC50 COX1 / IC50 COX2; for inhibition at 0.01 µM: read-out: COX-2 10 nM (% inhibition); for inhibition at 0.01 µM / COX-2 10 nM (% inhibition): 10 nM compound; for inhibition at 0.05 µM: read-out: COX-2 50 nM (% inhibition); for inhibition at 0.05 µM / COX-2 50 nM (% inhibition): 50 nM compound; for IC50: second number of cell COX1/COX2. The method, then: (§1) COX activity was assayed as PGE2 formed/μg protein/time using ELISA to detect prostaglandin release. CHAPS-solubilized insect cell membranes containing the appropriate COX enzyme were incubated in a potassium phosphate buffer (50 mM, pH 8.0) containing Tris-HCl, EDTA, phenol, and heme with the addition of arachidonic acid (10 μM). Compounds were pre-incubated with the enzyme for 5-10 minutes prior to the addition of arachidonic acid. Any reaction between the arachidonic acid and the enzyme was stopped after two minutes at 37° C. The PGE2 formed was measured by standard ELISA technology (Cayman Chemical).
(In an ELISA, binding on a coated surface is turned into a signal by an enzyme label.)

Another data set has as its target T2, COX-1 (Ovis aries, UniProt P05979).
T2 construct: host or cells: insect cells (membranes, CHAPS-solubilized)
T2 sequence (P05979 25-600): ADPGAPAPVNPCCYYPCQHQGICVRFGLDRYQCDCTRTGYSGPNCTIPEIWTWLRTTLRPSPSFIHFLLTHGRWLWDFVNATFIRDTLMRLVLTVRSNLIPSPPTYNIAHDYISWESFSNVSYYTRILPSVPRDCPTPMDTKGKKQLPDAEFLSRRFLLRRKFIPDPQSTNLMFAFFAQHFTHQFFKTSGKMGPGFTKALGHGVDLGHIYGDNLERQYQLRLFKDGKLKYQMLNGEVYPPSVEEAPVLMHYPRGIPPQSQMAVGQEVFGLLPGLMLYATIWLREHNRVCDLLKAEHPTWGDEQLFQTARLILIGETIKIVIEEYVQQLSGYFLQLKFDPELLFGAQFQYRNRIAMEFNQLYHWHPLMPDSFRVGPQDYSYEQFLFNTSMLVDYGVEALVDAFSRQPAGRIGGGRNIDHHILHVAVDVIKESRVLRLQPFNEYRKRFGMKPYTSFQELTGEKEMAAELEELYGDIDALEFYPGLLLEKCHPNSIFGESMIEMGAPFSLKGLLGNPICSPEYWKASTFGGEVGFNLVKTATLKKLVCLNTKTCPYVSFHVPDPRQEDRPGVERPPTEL
In words: Assay for COX-1 activity (Ovine), PGE2 formation by ELISA. The format is biochemical. The conditions noted are these: for IC50: first number of cell COX1/COX2; for inhibition at 0.01 µM: read-out: COX-1 10 nM (% inhibition); for inhibition at 0.01 µM / COX-1 10 nM (% inhibition): 10 nM compound; for inhibition at 0.05 µM: read-out: COX-1 50 nM (% inhibition); for inhibition at 0.05 µM / COX-1 50 nM (% inhibition): 50 nM compound. The method, then: as §1

As usually defined, the inhibition is how much of the control response was suppressed. One may read the IC50 as the midpoint of a concentration-inhibition curve.

Regarding `NS(=O)(=O)c1ccc(-n2cc(C(F)(F)F)nc2-c2nnc(-c3ccccc3)s2)cc1` [Example 48, 1-[4-(Aminosulfonyl)phenyl]-2-[2-(phenyl)-1,3,4-thiadiazol-5-yl]-4-(trifluoromethyl)-1H-imidazole], the “potency in controlling inflammation (in words)” value in data set [1] is listed as “good potency in controlling inflamation”. In addition, in data set [2], the “half-life compared with Celecoxib (in words)” value is given as “longer half-life” and the “pharmacology (pharmacokinetic) profile (in words)” value is listed as “excellent pharmacology profile”. Further, at COX-2, the “selectivity for the inhibition of COX-2 over COX-1 (in words)” value is recorded as “good selectivity”, the Selectivity is listed as 90, the inhibition at 0.01 µM turned out to be 84% and the inhibition at 0.05 µM was determined as 100%. The same molecule showed an IC50 against COX-2 of 0.4 nM. For the same molecule, on COX-1, the IC50 was determined as 36 nM, the inhibition at 0.01 µM was determined as 10% and the inhibition at 0.05 µM came out at 25%.

With `Cc1onc(-c2ccccc2)c1-c1ccc(S(N)(=O)=O)cc1` [Valdecoxib, reference compound], on COX-1, the inhibition at 0.01 µM came out at 2%.

As for `N=C(Nc1ccc(S(N)(=O)=O)cc1)c1nnc(-c2ccccc2)s1` [Example 32, N-[4-(Aminosulfonyl)phenyl]-3-[2-(phenyl)-1,3,4-thiadiazol-5-yl]carboximidamide], in data set [2], the “half-life compared with Celecoxib (in words)” value is “longer half-life”. On COX-2, the “COX-2 10 nM (% inhibition)” value is recorded as 85%, the “COX-2 50 nM (% inhibition)” value is 94%, the Selectivity was found to be 17 and the 50% inhibitory concentration (IC50) amounted to 4.8 nM. For the same molecule, on COX-1, the “COX-1 10 nM (% inhibition)” value is listed as 15%; the “COX-1 50 nM (% inhibition)” value amounted to 45%; the midpoint of inhibition, the IC50, lay at 79 nM.

As for `CS(=O)(=O)c1ccc(-n2cc(C(F)(F)F)nc2-c2nnc(Nc3ccccc3)s2)cc1` [Example 52, 1-[4-(Methylsulfonyl)phenyl]-2-[2-(N-anilino)-1,3,4-thiadiazol-5-yl]-4-(trifluoromethyl)-1H-imidazole], on COX-2, the “COX-2 10 nM (% inhibition)” value is on record as 98%, the Selectivity is 12 and the IC50 came out at 5.1 nM. Further, on COX-1, the “COX-1 10 nM (% inhibition)” value is recorded as 31% and the concentration for half-maximal inhibition (IC50) came out at 62 nM.

For the molecule “N-[4-(Aminosulfonyl)phenyl]-3-[2-(4-fluorophenyl)-1,3,4-thiadiazol-5-yl]carboximidamide [Example 33]”, in data set [2], the “half-life compared with Celecoxib (in words)” value is “longer half-life”. Besides, on COX-2, the “COX-2 10 nM (% inhibition)” value amounted to 84%, the “COX-2 50 nM (% inhibition)” value worked out at 100%, the Selectivity was 11 and the IC50 was 3.3 nM. Moreover, at COX-1, the “COX-1 10 nM (% inhibition)” value is listed as 23%, the “COX-1 50 nM (% inhibition)” value was determined as 52% and the IC50 worked out at 36 nM.

Regarding `CS(=O)(=O)c1ccc(-n2cc(C(F)(F)F)nc2-c2nnc(-c3ccccc3)s2)cc1` [Example 44, 1-[4-(Methylsulfonyl)phenyl]-2-(2-phenyl-1,3,4-thiadiazol-5-yl)-4-(trifluoromethyl)-1H-imidazole], on COX-2, the Selectivity is 12, the inhibition at 0.01 µM came out at 95%, the inhibition at 0.05 µM stood at 100% and the IC50 was determined as 2.3 nM. Moreover, at COX-1, the midpoint of inhibition, the IC50, lay at 27 nM; the inhibition at 0.01 µM came out at 30%; the inhibition at 0.05 µM was determined as 45%.

Values taken from patent US6555563B1, “Heteroaryl substituted amidinyl and imidazolyl compounds and methods employing same for the treatment of inflammation” (Medinox, Inc., priority 2001, dated 2003).
